Data as given in patent EP0354047A2, “Herbicidal method using atrazine” (MAY & BAKER LIMITED, priority 1988, dated 1990).

Key:
maize var.Irla = assay: Experiment 5: glasshouse, crop plants at 3 leaf stage, percentage phytotoxicity after 12 days; conditions: for % crop phytotoxicity Maize (3 leaves): Atrazine 0 g/ha
Method: An experiment was carried out to determine the biological interaction between atrazine and Compound 74 on maize. A wide range of dose rates of atrazine i.e. 250, 500, 1000 and 2000 g/ha (in a commercial suspension concentrate formulation containing 500g/l w/v atrazine) and of Compound 74 i.e. 31, 63, 125, 250, 1000 and 2000 g/ha (in a composition according to Example 2 as described hereinafter) were applied in a spray volume of 290litres/ha to four replicate 10cm square plastic plant pots of loam soil containing one maize plant, at the 3 leaf growth stage. Agricultural surfactant ('Agral') was added to the spray dilutions to give 0.2%v/v concentration.
After spraying the pots were arranged in randomised blocks in a glasshouse and watered as necessary. After 12 days the plants were assessed for percentage phytotoxicity (reduction in green area compared with unsprayed plants) (0 = no effect 100 = complete destruction).
E = X + Y […] where E, X and Y are percentage phytotoxicity.
The ED values were then used to plot an isobole according to the method of P.M.L. Tammes op cit. The results of percentage phytotoxicity, the ED₂₀ values calculated from them and the calculated expected value are given in Table 9.

Sesbania exactata = assay: Experiment 3: glasshouse, post-emergence, fresh weight after 19 days, % inhibition of growth; type: in vivo; conditions: 2 leaves
Method: (§1) A series of experiments was carried out to determine the nature of the biological interaction between atrazine and five compounds of general formula I on a range of weed species. […] The growth stages of the plants at spraying are also presented with the results. Agricultural surfactant (nonyl phenol ethylene oxide condensate containing 9 moles ethylene oxide marketed as 'Agral') was added to all spray dilutions to give 0.2% v/v concentration. […] After 19 days the fresh weight of vegetation in each pot was determined. […] E = […]00003:character} where E, X and Y are percentage inhibition of growth. In addition, the ED50 or ED90 values (the application rates giving 50% or 90% inhibition of growth, respectively) were calculated from the results for the piperidinedione alone and with increasing rates of atrazine.

Brassica kaber = assay: as above; type: in vivo; conditions: 2-3 leaves
Method: as §1

Xanthium strumarium = assay: as above; type: in vivo; conditions: 2 leaves
Method: as §1

Solanum nigrum = assay: as above; type: in vivo; conditions: 1-2 leaves
Method: as §1

Digitaria sanguinalis = assay: as above; type: in vivo; conditions: 3 leaves
Method: as §1

Bidens pilosa = assay: as above; type: in vivo; conditions: 2 leaves
Method: as §1

Amaranthus retroflexus = assay: as above; type: in vivo; conditions: 2-4 leaves
Method: as §1

Eleusine indica [1] = assay: as above; type: in vivo; conditions: 3 leaves
Method: as §1

Eleusine indica [2] = assay: Experiment 2: glasshouse experiment, seedlings at 4-leaf stage, percentage phytotoxicity after 19 days; type: in vivo
Method: Agricultural surfactant - nonylphenol ethylene oxide condensate containing 9 moles ethylene oxide (in a commercial composition) was added to all spray dilutions to give 0.2% v/v concentration. […] The ED50 values were as follows:- The results were then used to plot an isobole with a "two-sided effect" according to the methods of […] op. cit. The isobole produced, shown hereinafter in Figure 1 was clearly a type III curve ([…]., page 75), characteristic of synergism.

With `O=C1CCNC(=O)C1C(=O)c1ccc(C(F)(F)F)cc1[N+](=O)[O-]` (stereo not drawn) [Compound 74, 3-(2-nitro-4-trifluoromethylbenzoyl)piperidine-2,4-dione] the “% crop phytotoxicity Maize (3 leaves)” value (maize var.Irla; Compound 74 63 g/ha) was 1%, the “% crop phytotoxicity Maize (3 leaves)” value (maize var.Irla; Compound 74 125 g/ha) was 3% and the “% crop phytotoxicity Maize (3 leaves)” value (maize var.Irla; Compound 74 250 g/ha) was 6%. For the same molecule, the “% crop phytotoxicity Maize (3 leaves)” value (maize var.Irla; Compound 74 500 g/ha) was 10%, the “% crop phytotoxicity Maize (3 leaves)” value (maize var.Irla; Compound 74 1000 g/ha) was 30% and the “% crop phytotoxicity Maize (3 leaves)” value (maize var.Irla; Compound 74 2000 g/ha) was 58%. The ED₂₀ (maize var.Irla; Compound 74 alone) was “ED₂₀(g/ha) 601”, the ED₉₀ (Sesbania exactata; Compound 74 alone) was “ED₉₀(g/ha)375.45” and the inhibition at 8 g/ha (Sesbania exactata; Sesbania, post-emergence, Compound 74 8 g/ha alone) was 65%. For the same molecule, the inhibition at 16 g/ha (Sesbania exactata; Sesbania, post-emergence, Compound 74 16 g/ha alone) was 73%, the inhibition at 31 g/ha (Sesbania exactata; Sesbania, post-emergence, Compound 74 31 g/ha alone) was 61% and the inhibition at 125 g/ha (Sesbania exactata; Sesbania, post-emergence, Compound 74 125 g/ha alone) was 84%. The inhibition at 163 g/ha (Sesbania exactata; Sesbania, post-emergence, Compound 74 163 g/ha alone) was 80%, the inhibition at 250 g/ha (Sesbania exactata; Sesbania, post-emergence, Compound 74 250 g/ha alone) was 79% and the ED₅₀ (Brassica kaber; Compound 74 alone) was “ED₅₀(g/ha) 10.3”. For the same molecule, the inhibition at 2 g/ha (Brassica kaber; Mutarda arvensis, post-emergence, Compound 74 2 g/ha alone) was 19%, the inhibition at 4 g/ha (Brassica kaber; Mutarda arvensis, post-emergence, Compound 74 4 g/ha alone) was 20% and the inhibition at 8 g/ha (Brassica kaber; Mutarda arvensis, post-emergence, Compound 74 8 g/ha alone) was 32%. It also gave an inhibition at 16 g/ha (Brassica kaber; Mutarda arvensis, post-emergence, Compound 74 16 g/ha alone) of 61%, an inhibition at 31 g/ha (Brassica kaber; Mutarda arvensis, post-emergence, Compound 74 31 g/ha alone) of 72% and an inhibition at 63 g/ha (Brassica kaber; Mutarda arvensis, post-emergence, Compound 74 63 g/ha alone) of 96%. The ED₉₀ (Xanthium strumarium; Compound 74 alone) was “ED₉₀(g/ha) 166.99”, the inhibition at 8 g/ha (Xanthium strumarium; Xanthium strumarium, post-emergence, Compound 74 8 g/ha alone) was 55% and the inhibition at 16 g/ha (Xanthium strumarium; Xanthium strumarium, post-emergence, Compound 74 16 g/ha alone) was 45%. The inhibition at 31 g/ha (Xanthium strumarium; Xanthium strumarium, post-emergence, Compound 74 31 g/ha alone) was 74%, the inhibition at 125 g/ha (Xanthium strumarium; Xanthium strumarium, post-emergence, Compound 74 125 g/ha alone) was 86% and the inhibition at 163 g/ha (Xanthium strumarium; Xanthium strumarium, post-emergence, Compound 74 163 g/ha alone) was 79%. The inhibition at 250 g/ha (Xanthium strumarium; Xanthium strumarium, post-emergence, Compound 74 250 g/ha alone) was 92%, the ED₉₀ (Solanum nigrum; Compound 74 alone) was “ED₉₀(g/ha) 41.13” and the inhibition at 2 g/ha (Solanum nigrum; Solanum nigrum, post-emergence, Compound 74 2 g/ha alone) was 15%. The inhibition at 4 g/ha (Solanum nigrum; Solanum nigrum, post-emergence, Compound 74 4 g/ha alone) was 30%, the inhibition at 8 g/ha (Solanum nigrum; Solanum nigrum, post-emergence, Compound 74 8 g/ha alone) was 39% and the inhibition at 16 g/ha (Solanum nigrum; Solanum nigrum, post-emergence, Compound 74 16 g/ha alone) was 60%. The inhibition at 31 g/ha (Solanum nigrum; Solanum nigrum, post-emergence, Compound 74 31 g/ha alone) was 82%, the inhibition at 63 g/ha (Solanum nigrum; Solanum nigrum, post-emergence, Compound 74 63 g/ha alone) was 94% and the ED₉₀ (Digitaria sanguinalis; Compound 74 alone) was “ED₉₀ (g/ha) 75.46”. It also gave an inhibition at 16 g/ha (Digitaria sanguinalis; Digitaria sanguinalis, post-emergence, Compound 74 16 g/ha alone) of 55%, an inhibition at 31 g/ha (Digitaria sanguinalis; Digitaria sanguinalis, post-emergence, Compound 74 31 g/ha alone) of 75% and an inhibition at 63 g/ha (Digitaria sanguinalis; Digitaria sanguinalis, post-emergence, Compound 74 63 g/ha alone) of 88%. The inhibition at 125 g/ha (Digitaria sanguinalis; Digitaria sanguinalis, post-emergence, Compound 74 125 g/ha alone) was 96%, the inhibition at 250 g/ha (Digitaria sanguinalis; Digitaria sanguinalis, post-emergence, Compound 74 250 g/ha alone) was 99% and the inhibition at 500 g/ha (Digitaria sanguinalis; Digitaria sanguinalis, post-emergence, Compound 74 500 g/ha alone) was 100%. For the same molecule, the inhibition at 8 g/ha (Bidens pilosa; Bidens pilosa, post-emergence, Compound 74 8 g/ha alone) was 0%, the inhibition at 16 g/ha (Bidens pilosa; Bidens pilosa, post-emergence, Compound 74 16 g/ha alone) was 0% and the inhibition at 31 g/ha (Bidens pilosa; Bidens pilosa, post-emergence, Compound 74 31 g/ha alone) was 0%. The inhibition at 125 g/ha (Bidens pilosa; Bidens pilosa, post-emergence, Compound 74 125 g/ha alone) was 48%, the inhibition at 163 g/ha (Bidens pilosa; Bidens pilosa, post-emergence, Compound 74 163 g/ha alone) was 15% and the inhibition at 250 g/ha (Bidens pilosa; Bidens pilosa, post-emergence, Compound 74 250 g/ha alone) was 75%. For the same molecule, the ED₅₀ (Bidens pilosa; Compound 74 alone) was “ED₅₀(g/ha)141.27”, the inhibition at 2 g/ha (Amaranthus retroflexus; Amaranthus retroflexus, post-emergence, Compound 74 2 g/ha alone) was 27% and the inhibition at 4 g/ha (Amaranthus retroflexus; Amaranthus retroflexus, post-emergence, Compound 74 4 g/ha alone) was 47%. It also gave an inhibition at 8 g/ha (Amaranthus retroflexus; Amaranthus retroflexus, post-emergence, Compound 74 8 g/ha alone) of 69%, an inhibition at 16 g/ha (Amaranthus retroflexus; Amaranthus retroflexus, post-emergence, Compound 74 16 g/ha alone) of 76% and an inhibition at 31 g/ha (Amaranthus retroflexus; Amaranthus retroflexus, post-emergence, Compound 74 31 g/ha alone) of 86%. For the same molecule, the inhibition at 63 g/ha (Amaranthus retroflexus; Amaranthus retroflexus, post-emergence, Compound 74 63 g/ha alone) was 90%, the ED₉₀ (Amaranthus retroflexus; Compound 74 alone) was “ED₉₀(g/ha) 46.43” and the ED₅₀ (Eleusine indica [1]; Compound 74 alone) was “ED₅₀ (g/ha) 72.43”. It also gave an inhibition at 16 g/ha (Eleusine indica [1]; Eleusine indica, post-emergence, Compound 74 16 g/ha alone) of 0%, an inhibition at 31 g/ha (Eleusine indica [1]; Eleusine indica, post-emergence, Compound 74 31 g/ha alone) of 26% and an inhibition at 63 g/ha (Eleusine indica [1]; Eleusine indica, post-emergence, Compound 74 63 g/ha alone) of 55%. For the same molecule, the inhibition at 125 g/ha (Eleusine indica [1]; Eleusine indica, post-emergence, Compound 74 125 g/ha alone) was 84%, the inhibition at 250 g/ha (Eleusine indica [1]; Eleusine indica, post-emergence, Compound 74 250 g/ha alone) was 96% and the inhibition at 500 g/ha (Eleusine indica [1]; Eleusine indica, post-emergence, Compound 74 500 g/ha alone) was 95%. The percentage phytotoxicity (Eleusine indica [2]; Compound 74 16 g/ha alone) was 13%, the percentage phytotoxicity (Eleusine indica [2]; Compound 74 31 g/ha alone) was 12% and the percentage phytotoxicity (Eleusine indica [2]; Compound 74 63 g/ha alone) was 40%. It also gave a percentage phytotoxicity (Eleusine indica [2]; Compound 74 125 g/ha alone) of 50%, a percentage phytotoxicity (Eleusine indica [2]; Compound 74 250 g/ha alone) of 77% and an ED₅₀ (Eleusine indica [2]; Compound 74 alone, 50% phytotoxicity) of 101 g/ha.
